Measured values as given in ChEMBL document CHEMBL1240367, “Therapy of murine pulmonary aspergillosis with antibody-alliinase conjugates and alliin” (2010).
Converted amounts (≈) assume the structure as drawn. Blank lines part the entries; values can stand above or below the compound they belong to.

Key:
Format in all cases: functional
Aspergillus fumigatus [1] = test: Antifungal activity against resting Aspergillus fumigatus
Aspergillus fumigatus [2] = test: Antifungal activity against Aspergillus fumigatus hyphae
Aspergillus fumigatus [3] = test: Antifungal activity against swollen Aspergillus fumigatus
Aspergillus fumigatus [4] = test: Antifungal activity against Aspergillus fumigatus infected ICR mouse assessed as median survival time at 750 ug, it administered 1 hr post infection repeated on days 4, 6 and 9
Aspergillus fumigatus [5] = test: Antifungal activity against Aspergillus fumigatus infected ICR mouse assessed as median survival time at 1 mg/kg, it administered 1 hr post infection repeated on days 4, 6 and 9; details: route endotracheal

MIC (Aspergillus fumigatus [2]): 30 µg/mL (≈ 185 µM)
SMILES: C=CCS[S+]([O-])CC=C (stereo not given) [ALLICIN]
MFC (Aspergillus fumigatus [1]): 15 µg/mL (≈ 92.4 µM)
MFC (Aspergillus fumigatus [3]): 7.5 µg/mL (≈ 46.2 µM)

SMILES: C=CC[S+]([O-])C[C@H](N)C(=O)O (stereo not given in full) [ALLIIN]
MST (Aspergillus fumigatus [4]): 7 days

SMILES: C[C@@H]1[C@H](O)[C@@H](C)/C=C/C=C/C=C/C=C/C=C/C=C/C=C/[C@H](O[C@@H]2O[C@H](C)[C@@H](O)[C@H](N)[C@@H]2O)C[C@@H]2O[C@](O)(C[C@@H](O)C[C@@H](O)[C@H](O)CC[C@@H](O)C[C@@H](O)CC(=O)O[C@H]1C)C[C@H](O)[C@H]2C(=O)O [AMPHOTERICIN B]
MST (Aspergillus fumigatus [5]): 18 days
